Test results: US12454564B2, “Compositions and methods for T cell engineering” (Gracell Biotechnologies (Shanghai) Co., Ltd., priority 2018, dated 2025)
“Also recorded” adds a separate entry of the source.

Assays:
Assay in all cases: gRNA knockout efficiency
CD2 = type: cell-based
CD7 = details: used together with TRAC-gRNA1
Procedure: (§1) For gene editing, 3 μg Cas9 protein and 1.5 μg gRNA were mixed in 20 μl and incubated at 37° C. or room temperature for 15 minutes to form ribonucleoprotein (RNP). Then RNP was transfected into T cells by Lonza 4D Nucleofector®. Gene knockout efficiency was determined by the ratio of the cells expressing the protein as detected by flow cytometry (FACS).
For gene editing, 3 μg Cas9 protein and 1.5 μg gRNA were mixed in 20 μl and incubated at 37° C. or room temperature for 15 minutes to form ribonucleoprotein (RNP). Then RNP was transfected into T cells by Lonza 4D Nucleofector®. Gene knockout efficiency was determined by the ratio of the cells expressing the protein as detected by flow cytometry.

TCR = system: TCR
Procedure: as §1
First, gRNA sequences targeting the exon of the TCR conserved region were designed at http://crispr.mit.edu, and two gRNA sequences with scores above 80 were selected for higher knockout efficiency. For the gRNA primer, the forward primer comprises a T7 promotor followed by 20 bp of the target sequence, and the reverse primer has 20 bp of the complementary sequence. Plasmids were used as PCR template. After purification, T7-PCR product was further used as the template for MEGAshortscript® T7 kit to obtain RNA. The RNA was purified with a MEGAclear® column and eluted with RNA-free water. Cas9 plasmid was purchased from Addgene.
Meanwhile, the knockout efficiency of the gRNA was analyzed by T7E1, TIDE and flow cytometry.
For gene editing, 3 μg Cas9 protein and 1.5 μg gRNA were mixed in 20 μl and incubated at 37° C. or room temperature for 15 minutes to form ribonucleoprotein (RNP). […] Gene knockout efficiency was determined by the ratio of the cells expressing the protein as detected by flow cytometry.

Row | Substance | CD7 knockout efficiency (CD7) | other results
1 | CD2 gRNA2: gRNA GTGCCACAAAGACCATCAAG (SEQ ID NO 30) (listed as DNA, chemistry not given here) |  | CD2 knockout efficiency (CD2): the highest CD2 knockout efficiencies
2 | CD7-gRNA1: gRNA GAGGTCAATGTCTACGGCTC (SEQ ID NO 25) (listed as DNA, chemistry not given here) | high knockout efficiencies; also recorded: obviously better | 
3 | CD7-gRNA4: gRNA GGAGCAGGTGATGTTGACGG (SEQ ID NO 28) (listed as DNA, chemistry not given here) | obviously better | 
4 | TRAC-gRNA2: gRNA TCAGGGTTCTGGATATCTGT (SEQ ID NO 21) (listed as DNA, chemistry not given here) |  | knockout efficiency for TCR (TCR): high knockout efficiencies
